# How the values were obtained:
# [1] = tested on: ERK phosphorylation in AGS cells; experiment: Inhibition of ERK phosphorylation in AGS cells (HTRF method); assay type: cell-based; conditions: Homo sapiens, 1 h incubation with compound, phosphorylated ERK/total ERK ratio
# Procedure: In the experiment, the inhibitory effect of the compound represented by formula I on the KRAS target was evaluated by assessing the inhibitory effect of the compound on ERK phosphorylation in cells and based on the IC50.
# AGS cells (Nanjing Cobioer, CBP60476) were cultured in an RPMI1640 (Hyclone, SH30809.01) complete culture medium containing 10% fetal bovine serum. On the first day of the experiment, the AGS cells were seeded into a 96-well plate with a complete culture medium at a density of 40,000 cells/well, with each well containing 190 µL of a cell suspension. The plate was incubated overnight in a cell incubator at 37 °C with 5% CO2.
# The next day, the test compound, serially diluted in a complete culture medium, was added at 10 µL/well. The final concentrations of the compound were 9 concentration points obtained by 5-fold serial dilution from 10 µM. A blank control containing 0.5% DMSO was set. The plate was incubated in a cell incubator at 37 °C with 5% CO2 for 1 h. […]
# On the third day, the fluorescence values at an excitation wavelength of 337 nm and emission wavelengths of 665 nm and 620 nm were obtained using an ENVISION multimode microplate reader (PerkinElmer, ENVISION).
# The IC50 value for the inhibitory activity of the compound was calculated using Graphpad Prism software based on the compound concentration and the phosphorylated ERK/total ERK ratio. […]
# [2] = tested on: AGS cells; experiment: Inhibition of 3D proliferation of AGS cells (CellTiter-Glo 3D); assay type: cell-based; conditions: Homo sapiens, 120 h incubation
# Procedure: (§1) The inhibitory effect of the compound represented by formula I on the KRAS target was evaluated by assessing the inhibitory effect of the compound represented by formula I on the 3D proliferation of GP2d and AGS cells.
# (§2) AGS cells (Nanjing Cobioer, CBP60476) were cultured in a complete culture medium, namely an RPMI1640 medium (Hyclone, SH30809.01) containing 10% fetal bovine serum (Corning, 35-076-CV). On the first day of the experiment, the AGS cells were seeded into a 96-well low-adsorption plate (Corning, CLS7007-24EA) with a complete culture medium at a density of 1000 cells/well, with each well containing 90 µL of a cell suspension. The plate was centrifuged at 2000 rpm for 5 min at room temperature and then incubated overnight in a cell incubator at 37 °C with 5% CO2.
# (§3) The next day, the test compound, serially diluted in a complete culture medium, was added at 10 µL/well. The final concentrations of the compound for GP2d cells were 9 concentration points obtained by 3-fold serial dilution from 1 µM, and the final concentrations of the compound for AGS cells were 9 concentration points obtained by 3-fold serial dilution from 10 µM. A blank control containing 0.5% DMSO was set for both types of cells. The plates were incubated in a cell incubator at 37 °C with 5% CO2 for 120 h. […] The luminescence signal values were obtained using a multimode microplate reader (PerkinElmer, ENVISION). […]
# [3] = tested on: GP2d cells; experiment: Inhibition of 3D proliferation of GP2d cells (CellTiter-Glo 3D); assay type: cell-based; conditions: 120 h incubation
# Procedure: as §1
# as §2, with “GP2d” for “AGS”, “CBP60010)” for “CBP60476)”, “a DMEM/high glucose culture” for “an RPMI1640”, “SH30243.01)” for “SH30809.01)”
# as §3, with “cells.” for “cells. The plates were incubated in a cell incubator at 37 °C with 5% CO2 for 120 h.”
# [4] = molecular target: KRAS protein subtype G12D (Homo sapiens, UniProt P01116, G12D); experiment: Affinity for KRAS protein subtype G12D by SPR method (Biacore 8K); assay type: binding; conditions: biotinylated Avi-KRAS-G12D, single-cycle kinetic mode, 1:1 model
# Procedure: (§4) Biotinylated Avi-KRAS-WT or Avi-KRAS-G12D was diluted to 20 µg/mL with a 1× HBS-P+ (Cat. # BR1006-71) buffer containing 100 mM MgCl2 and then allowed to flow through channel 2 of an SA (Cat. # BR1005-31) biosensor chip for 420 s to obtain a coupling level of approximately 5000-7000 RU. Then samples of the compound were injected sequentially in descending order for 120 s, followed by 720 s of dissociation. The testing was performed using a single-cycle kinetic mode. Reaction signals were detected in real time using a Biacore 8K instrument to obtain association and dissociation curves. After the testing was finished, data analysis was performed using Biacore 8K evaluation software. Data fitting was performed using a 1:1 model, and affinity data were obtained.
# [5] = molecular target: KRAS protein subtype WT (Homo sapiens, UniProt P01116); experiment: Affinity for KRAS protein subtype WT by SPR method (Biacore 8K); assay type: binding; conditions: biotinylated Avi-KRAS-WT, single-cycle kinetic mode, 1:1 model
# Procedure: as §4
# KRAS protein subtype WT, sequence (P01116 1-188 isoform P01116-2): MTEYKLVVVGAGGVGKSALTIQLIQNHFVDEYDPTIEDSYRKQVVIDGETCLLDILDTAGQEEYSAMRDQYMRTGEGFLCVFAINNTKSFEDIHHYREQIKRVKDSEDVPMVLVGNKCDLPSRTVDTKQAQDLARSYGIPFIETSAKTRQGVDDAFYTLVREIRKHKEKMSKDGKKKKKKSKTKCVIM
# KRAS protein subtype G12D, sequence (P01116 1-188 isoform P01116-2 G12D): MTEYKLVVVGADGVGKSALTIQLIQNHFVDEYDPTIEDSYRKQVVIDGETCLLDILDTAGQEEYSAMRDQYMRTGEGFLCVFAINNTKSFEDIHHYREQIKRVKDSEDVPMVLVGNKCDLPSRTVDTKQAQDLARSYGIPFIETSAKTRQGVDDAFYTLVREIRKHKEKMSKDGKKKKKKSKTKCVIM
smiles,measurement,setting,value
"CCc1c(F)ccc2cc(O)cc(-c3nc4c5c(nc(OC[C@@]67CCCN6C[C@H](F)C7)nc5c3F)N3C[C@H]5CC[C@H](N5)[C@H]3CO4)c12 [Compound represented by formula I, 5-Ethyl-6-fluoro-4-((5aS,6S,9R)-1-fluoro-12-(((2R,7aS)-2-fluorotetrahydro-1H-pyrrolizin-7a(5H)-yl)methoxy)-5a,6,7,8,9,10-hexahydro-5H-4-oxa-3,10a,11,13,14-pentaaza-6,9-methanonaphtho[1,8-ab]heptalen-2-yl)naphthalen-2-ol]",IC50,[1],0.4 nM
same,IC50,[2],5.8 nM
same,IC50,[3],0.9 nM
same,Kd,[4],0.03 nM
same,Kd,[5],1.54 nM

# Source: EP4563151A1, “PHARMACEUTICAL COMPOSITION COMPRISING KRAS G12D INHIBITOR” (Jiangsu Hengrui Pharmaceuticals Co., Ltd., priority 2022, dated 2024)
